According to patent publication US10344019B2 (priority 2010, dated 2019):

Tests used:
Type in all cases: cell-based
[1] = test system: HCV 2a Rluc cells (NS5A chimeric genotype 2a JFH-1 replicon with genotype 2a J6 strain NS5A gene, M31 present); assay: HCV replicon reporter assay, genotype 2a J6 (M31 present); conditions: Hepatitis C virus, read-out: 2a J6
In short: (§1)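 Renilla luciferase HCV replicon cells: dicistronic 1b Con1, 1a H77 or 2a JFH-1 replicons, or a JFH-1 chimera carrying J6 NS5A (M31 present). Compound in DMSO serial dilutions, 72 h incubation, then lysis and luciferase read. EC50 by non-linear regression.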

[2] = test system: HCV 1b RLuc cells (dicistronic genotype 1b Con1 replicon, RLuc reporter); assay: microbe, parasite or virus in culture; conditions: Hepatitis C virus, read-out: 1b (nM)
In short: as §1

[3] = test system: HCV 2b Rluc cells (NS5A chimeric genotype 2a JFH-1 replicon with genotype 2b MD2b-1 NS5A gene, M31 present); assay: microbe, parasite or virus in culture; conditions: Hepatitis C virus, read-out: 2b
In short: (§2)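 Replicon cells stably carrying the listed RLuc-encoding dicistronic replicons were seeded and treated with DMSO serial dilutions of compound (10 mM stocks) diluted into culture medium. After 72 h, cells were lysed and Renilla luciferase activity measured. EC50 was derived by non-linear regression.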

[4] = test system: HCV 1a RLuc cells (dicistronic genotype 1a H77 replicon, RLuc reporter); assay: microbe, parasite or virus in culture; conditions: Hepatitis C virus, genotype 1a H77 RLuc replicon; read-out: 1a
In short: as §1

[5] = test system: HCV 4a Rluc cells (NS5A chimeric genotype 1b Con1 replicon with genotype 4a NS5A gene); assay: microbe, parasite or virus in culture; conditions: Hepatitis C virus, read-out: 4a
In short: as §2

[6] = test system: HCV 2a JFH-1 Rluc cells (dicistronic genotype 2a JFH-1 replicon, RLuc reporter); assay: microbe, parasite or virus in culture; conditions: Hepatitis C virus, genotype 2a JFH-1 RLuc replicon; read-out: 2a JFH
In short: as §1

[7] = test system: HCV 3a RLuc cells (NS5A chimeric genotype 1b Con1 replicon with consensus genotype 3a NS5A gene); assay: microbe, parasite or virus in culture; conditions: Hepatitis C virus, read-out: 3a, genotype 3a NS5A chimeric replicon
In short: as §2

Structure (SMILES) | EC50 [1] [nM] | EC50 [2] [nM] | EC50 [3] [nM] | EC50 [4] [nM] | EC50 [5] [nM] | EC50 [6] [nM] | EC50 [7] [nM]
COC(=O)N[C@H](C(=O)N1CCC[C@H]1c1ncc(-c2cc3c4c(c2)OCc2cc(-c5cnc([C@@H]6CCCN6C(=O)[C@H](NC(=O)c6ccccn6)c6ccccc6)[nH]5)cc(c2-4)OC3)[nH]1)C(C)C [Example 522] | > 44 | 0.023 | 0.001 to 0.999 | 0.001 to 0.999 | 0.001 to 0.99 | 0.001 to 0.999 | –
COC(=O)N[C@H](C(=O)N1C[C@@H](COC(F)F)C[C@H]1c1nc2ccc3cc4c(cc3c2[nH]1)OCc1cc(-c2cnc([C@@H]3CC[C@H](C)N3C(=O)[C@@H](NC(=O)OC)C(C)C)[nH]2)ccc1-4)C(C)C [Example 631] | 0.001 to 0.999 | 0.006 | 0.001 to 0.999 | 0.001 to 0.999 | – | 0.001 to 0.999 | > 5
COC[C@H]1C[C@@H](c2nc3ccc4cc(-c5ccc6c(ccc7nc([C@@H]8C[C@H](C)CN8C(=O)[C@@H](NC(=O)OC)C(C)C)[nH]c76)c5)ccc4c3[nH]2)N(C(=O)[C@H](NC(=O)C2CC(F)(F)C2)c2ccccc2)C1 [Example 542] | 0.001 to 0.999 | 0.05 | 0.001 to 0.999 | 0.001 to 0.999 | 0.001 to 0.99 | 0.001 to 0.999 | –
COC[C@H]1C[C@@H](c2nc3ccc4cc(-c5ccc6c(ccc7nc([C@@H]8C[C@H]9C[C@H]9N8C(=O)[C@@H](NC(=O)OC)C(C)(C)C)[nH]c76)c5)ccc4c3[nH]2)N(C(=O)[C@H](NC(=O)C2CC2)c2ccccc2)C1 [Example 532] | 0.001 to 0.999 | 0.009 | 0.001 to 0.999 | 0.001 to 0.999 | 0.001 to 0.99 | 0.001 to 0.999 | –
COC[C@H]1C[C@@H](c2nc3ccc4cc(-c5ccc6c(ccc7nc([C@@H]8C[C@H]9C[C@H]9N8C(=O)[C@@H](NC(=O)OC)C(C)(C)C)[nH]c76)c5)ccc4c3[nH]2)N(C(=O)[C@H](NC(=O)OC)c2ccccc2)C1 [Example 530] | 0.001 to 0.999 | 0.011 | 0.001 to 0.999 | 0.001 to 0.999 | 0.001 to 0.99 | 0.001 to 0.999 | –
COC[C@H]1C[C@@H](c2ncc(-c3ccc(-c4ccc(-c5cnc([C@@H]6C[C@H]7C[C@H]7N6C(=O)[C@H](NC(=O)C6CC6)c6ccccc6)[nH]5)cc4)cc3)[nH]2)N(C(=O)[C@@H](NC(=O)OC)C(C)C)C1 [Example 519] | 0.001 to 0.999 | 0.01 | 0.001 to 0.999 | 0.001 to 0.999 | 0.001 to 0.99 | 0.001 to 0.999 | –
COC[C@H]1C[C@@H](c2nc3ccc4cc(-c5ccc6c(ccc7nc([C@@H]8C[C@H](C)CN8C(=O)[C@@H](NC(=O)OC)C(C)C)[nH]c76)c5)ccc4c3[nH]2)N(C(=O)[C@H](NC(=O)C2CCC2)c2ccccc2)C1 [Example 541] | 0.001 to 0.999 | 0.034 | 0.001 to 0.999 | 0.001 to 0.999 | 0.001 to 0.99 | 0.001 to 0.999 | –
CC[C@H](C)[C@H](NC(=O)OC)C(=O)N1CCC[C@H]1c1ncc(-c2ccc(-c3ccc4c(ccc5nc([C@@H]6C[C@H](COC)CN6C(=O)[C@H](NC(=O)C6CC6)c6ccccc6)[nH]c54)c3)cc2)[nH]1 [Example 534] | 0.001 to 0.999 | 0.011 | 0.001 to 0.999 | 0.001 to 0.999 | 0.001 to 0.99 | 0.001 to 0.999 | –
COC[C@H]1C[C@@H](c2nc3ccc4cc(-c5ccc6c(ccc7nc([C@@H]8CCCN8C(=O)[C@@H](NC(=O)OC)C(C)C)[nH]c76)c5)ccc4c3[nH]2)N(C(=O)[C@H](NC(=O)C2CCC2)c2ccccc2)C1 [Example 537] | 0.001 to 0.999 | 0.014 | 0.001 to 0.999 | 0.001 to 0.999 | 0.001 to 0.99 | 0.001 to 0.999 | –
COC[C@H]1C[C@@H](c2nc3ccc4cc5c(cc4c3[nH]2)OCc2cc(-c3ccc4nc([C@@H]6CCCN6C(=O)[C@@H](NC(=O)OC)C(C)C)[nH]c4c3)ccc2-5)N(C(=O)[C@@H](NC(=O)OC)C(C)C)C1 [Example 563] | > 44 | 0.007 | > 44 | 0.001 to 0.999 | 0.001 to 0.99 | 0.001 to 0.999 | –
COC(=O)N[C@H](C(=O)N1CCC[C@H]1c1ncc(-c2cc3c4c(c2)OCc2cc(-c5cnc([C@@H]6CCCN6C(=O)[C@H](NC(=O)C6CCC6)c6ccccc6)[nH]5)cc(c2-4)OC3)[nH]1)C(C)C [Example 521] | 0.001 to 0.999 | 0.028 | 0.001 to 0.999 | 0.001 to 0.999 | 0.001 to 0.99 | 0.001 to 0.999 | –
COC[C@H]1C[C@@H](c2nc3ccc4cc(-c5ccc(-c6[nH]c([C@@H]7CCCN7C(=O)[C@@H](NC(=O)OC)C(C)C)nc6C)cc5)ccc4c3[nH]2)N(C(=O)[C@@H](NC(=O)OC)C(C)C)C1 [Example 524] | > 44 | 0.02 | 1 to 44 | 0.001 to 0.999 | 0.001 to 0.99 | 0.001 to 0.999 | –
COC[C@H]1C[C@@H](c2nc3ccc4cc5c(cc4c3[nH]2)OCc2cc(-c3ccc4nc([C@@H]6CCCN6C(=O)[C@@H](NC(=O)OC)C(C)C)[nH]c4c3)ccc2-5)N(C(=O)[C@H](NC(=O)OC)c2ccccc2)C1 [Example 556] | > 44 | – | > 44 | 0.001 to 0.999 | 0.001 to 0.99 | 0.001 to 0.999 | –
CC[C@H](C)[C@H](NC(=O)OC)C(=O)N1[C@@H]2C[C@@H]2C[C@H]1c1nc2ccc3cc(-c4ccc5c(ccc6nc([C@@H]7C[C@H](COC)CN7C(=O)[C@H](NC(=O)C7CC7)c7ccccc7)[nH]c65)c4)ccc3c2[nH]1 [Example 531] | 0.001 to 0.999 | 0.018 | 0.001 to 0.999 | 0.001 to 0.999 | 0.001 to 0.99 | 0.001 to 0.999 | –
COC(=O)N[C@H](C(=O)N1CCC[C@H]1c1nc2ccc3cc(-c4ccc5c(ccc6nc([C@@H]7C[C@H](COC(F)F)CN7C(=O)[C@H](NC(=O)OC)c7ccccc7)[nH]c65)c4)ccc3c2[nH]1)C(C)C [Example 528] | 0.001 to 0.999 | 0.01 | 0.001 to 0.999 | 0.001 to 0.999 | 0.001 to 0.99 | 0.001 to 0.999 | –
COC(=O)N[C@H](C(=O)N1CCC[C@H]1c1nc2ccc3cc(-c4ccc5c(ccc6nc([C@@H]7C[C@H](SC)CN7C(=O)[C@H](NC(=O)OC)c7ccccc7)[nH]c65)c4)ccc3c2[nH]1)C(C)C [Example 535] | 0.001 to 0.999 | 0.022 | 0.001 to 0.999 | 0.001 to 0.999 | 0.001 to 0.99 | 0.001 to 0.999 | –
COC[C@H]1C[C@@H](c2nc3ccc4cc(-c5ccc(-c6cnc([C@@H]7CCCN7C(=O)[C@@H](NC(=O)OC)C(C)C)[nH]6)cc5)ccc4c3[nH]2)N(C(=O)[C@H](NC(=O)C2CCC2)c2ccccc2)C1 [Example 533] | 0.001 to 0.999 | 0.012 | 0.001 to 0.999 | 0.001 to 0.999 | 0.001 to 0.99 | 0.001 to 0.999 | –
CC[C@H](C)[C@H](NC(=O)OC)C(=O)N1C[C@@H](COC)C[C@H]1c1nc2ccc3cc4c(cc3c2[nH]1)OCc1cc(-c2cnc([C@@H]3CC[C@H](C)N3C(=O)[C@@H](NC(=O)OC)C(C)C)[nH]2)ccc1-4 [Example 623] | 0.001 to 0.999 | 0.006 | 0.001 to 0.999 | 0.001 to 0.999 | – | 0.001 to 0.999 | –
CCC(C)[C@H](NC(=O)OC)C(=O)N1C[C@@H](COC)C[C@H]1c1nc2ccc3cc4c(cc3c2[nH]1)OCc1cc(-c2cnc([C@@H]3C[C@H](C)CN3C(=O)[C@@H](NC(=O)OC)[C@@H](C)CC)[nH]2)ccc1-4 (some centres unmarked) [Example 640] | 0.001 to 0.999 | 0.015 | 0.001 to 0.999 | 0.001 to 0.999 | – | 0.001 to 0.999 | –
CC[C@H](C)[C@H](NC(=O)OC)C(=O)N1C[C@@H](C)C[C@H]1c1ncc(-c2ccc3c(c2)COc2cc4c(ccc5nc([C@@H]6C[C@H](COC)CN6C(=O)[C@@H](NC(=O)OC)C(C)C)[nH]c54)cc2-3)[nH]1 [Example 642] | 0.001 to 0.999 | 0.014 | 0.001 to 0.999 | 0.001 to 0.999 | – | 0.001 to 0.999 | –
COC(=O)NC(C(=O)N1C[C@@H](C)C[C@H]1c1nc2ccc3cc4c(cc3c2[nH]1)OCc1cc(-c2cnc([C@@H]3CC[C@H](C)N3C(=O)[C@@H](NC(=O)OC)C(C)C)[nH]2)ccc1-4)[C@H](C)OC (some centres unmarked) [Example 621] | 0.001 to 0.999 | 0.013 | 0.001 to 0.999 | 0.001 to 0.999 | – | 0.001 to 0.999 | –
COC[C@H]1C[C@@H](c2nc3ccc4cc5c(cc4c3[nH]2)OCc2cc(-c3cnc([C@@H]4C[C@H](C)CN4C(=O)C(NC(=O)OC)[C@H](C)OC)[nH]3)ccc2-5)N(C(=O)[C@@H](NC(=O)OC)[C@H](C)OC)C1 (some centres unmarked) [Example 620] | 0.001 to 0.999 | 0.081 | 0.001 to 0.999 | 0.001 to 0.999 | – | 0.001 to 0.999 | –
CC[C@H](C)[C@H](NC(=O)OC)C(=O)N1C[C@@H](C)C[C@H]1c1ncc(-c2ccc3c(c2)COc2cc4c(ccc5nc([C@@H]6C[C@H](COC)CN6C(=O)[C@@H](NC(=O)OC)[C@@H](C)OC)[nH]c54)cc2-3)[nH]1 [Example 641] | 0.001 to 0.999 | 0.03 | 0.001 to 0.999 | 0.001 to 0.999 | – | 0.001 to 0.999 | –
